In US20110195432A1, “METHODS FOR THE SELECTION OF THERAPEUTIC TREATMENTS FOR CANCER” (priority 2008, published 2011):
“Also recorded” adds a separate entry of the source.

Experiments:
[1] = system: PSA ARE; conditions: LNCaP cells; 20 μM sulforaphane, 24 hours; versus vehicle-treated cells
Protocol: To determine whether AR protein depletion from its target genes' androgen response elements (AREs) was responsible for reduced target gene expression, chromatin immunoprecipitation (ChIP) was performed. Cells were cross-linked with formaldehyde and reactions were stopped with glycine. Crosslinked cells were re-suspended in RIPA with SigmaFast protease inhibitors tablets (Sigma, St. Louis, Mo.) and sonicated on ice using a Branson Digital Sonifer model 450 (Branson Ultrasonics Co., Danbury, Conn.). Sonicated cellular lysates were used for Matrix ChIP (Flanagin et al., Nucleic Acids Res 36: e17, 2008) Immunoprecipitations were performed without adding an antibody or with 500 ng of an anti-AR antibody. PCR reactions were amplified using a thermocycler (see supplementary methods). ChIP PCR primer sequences were as follows:
Primers were synthesized by IDT (Coralville, Iowa). ChIP PCR program consisted of: 95° C. for 5 minutes for 1 cycle; 95° C. for 30 seconds, 58° C.(TMPRSS2-ERG) or 60° C. (PSA) for 30 seconds, and 72° C. for 30 seconds for 35-40 cycles; 72° C. final extension for 5 minutes. […] Bands were imaged for densitometry using a Gel Doc XR UV transilluminator and Quantity One software (Bio-Rad, Hercules, Calif.).

[2] = system: HDAC6; assay: Western blot of HDAC6 protein levels, LNCaP cells; assay type: cell-based
[3] = system: HDAC6; conditions: LNCaP cells; sulforaphane versus vehicle
Protocol: (§1) All samples were run in triplicate. The vehicle-treated sample was set to 1.
LNCaP cells were transiently transfected with pCDNA3.1 empty vector (Invitrogen, Carlsbad, Calif.) or FLAG-tagged HDAC6 expression vector (Addgene, Cambridge, Mass.) using Lipofectamine LTX and Plus reagents (Invitrogen, Carlsbad, Calif.). Forty-eight hours later, media was replaced for a 16-hour treatment with […] sulforaphane or vehicle. Levels of FLAG, HDAC6, AR, acetylated alpha-tubulin, and actin were measured by Western blot.

[4] = system: AR; assay: Western blot of AR protein levels, VCaP cells; assay type: cell-based; conditions: 24 hours
[5] = system: PSA and TMPRSS2-ERG; conditions: VCaP cells; 24 hours; increasing doses; vehicle set to 1
Protocol: To determine the functional consequences of sulforaphane-mediated reduction in AR protein levels, real-time PCR was conducted for several AR target genes, including PSA and the TMPRSS2-ERG gene fusion present in VCaP cells (FIGS. 5A-C). Cells were lysed in Trizol (Invitrogen, Carlsbad, Calif.) and then purified with the RNAEasy Kit (Qiagen, Valencia, Calif.). One μg of RNA was reverse-transcribed using the Omniscript RT kit (Qiagen, Valencia, Calif.). Real-time PCR primer sequences and conditions were as follows.
The real-time PCR program consisted of: 50° C. for 2 minutes for 1 cycle; 95° C. for 10 minutes for 1 cycle; 95° C. for 15 seconds and 60° C. for 15 seconds for a total of 40 cycles. Standard curves were generated by measuring expression of target genes and 18S rRNA in serial dilutions of a mock-treated control. All samples were run in triplicate. The vehicle-treated sample was set to 1.

[6] = system: PSA; assay: Real-time PCR of AR target gene expression, LNCaP cells; assay type: cell-based; conditions: increasing doses, vehicle set to 1
Excerpt: as §1

[7] = system: HSP90; conditions: sulforaphane 20 μM
Protocol: (§2) LNCaP and VCaP cells were grown according to ATCC instructions. Sulforaphane (SFN, #S4441 Sigma, St. Louis, Mo.) was re-suspended in DMSO. Vehicle-treated cells received the respective vehicle controls Immunoprecipitations were carried out after treatment with sulforaphane (20 μM) or vehicle for 4 hours followed by a Western blot for HSP90 and AR. Enrichment was quantified for each immunoprecipitation. Inputs were probed with the indicated antibodies by Western blot and were quantified.
(§3) Immunoprecipitation and immunoblotting were performed as described (Qian et al., Clin. Cancer Res. 12:634-42, 2006). The following antibodies used in immunoblotting or immunoprecipitations (indicated dilutions are for immunoblotting): AR (1:1000, #06-680 Upstate, Billerica, Mass.); acetylated lysine (#05-515 Upstate, Billerica, Mass.); acetylated tubulin (1:2000, #T6793 Sigma, St. Louis, Mo.); alpha-tubulin (1:10,000, #T6074 Sigma, St. Louis, Mo.); beta-actin (1:5000, #A5441 Sigma, St. Louis, Mo.); ERG-1/2/3, (1:5000, #sc-354X Santa Cruz, Santa Cruz, Calif.); FLAG epitope (#F7425 Sigma, St. Louis, Mo.); GAPDH (1:5000, #sc-32233 Santa Cruz, Santa Cruz, Calif.); HDAC6 (1:1000, #sc-11420 Santa Cruz); HSP90 (1:1000, #SPA-840 Stressgen, Ann Arbor, Mich.); mouse IgG (#sc-2025 Santa Cruz, Santa Cruz, Calif.). The following secondary antibodies were used: ECL-conjugated anti-mouse IgG, (1:5000, #A6782 Sigma, St. Louis, Mo.); ECL-conjugated anti-rabbit IgG (1:3000, #NA934 Amersham, Piscataway, N.J. or 1:10,000, #sc-2004 Santa Cruz, Santa Cruz, Calif.). X-ray exposures were scanned as uncompressed images and bands were quantified by densitometry with Quantity One software (Bio-Rad, Hercules, Calif.). Intensity values were normalized to those of the endogenous controls. The vehicle sample was set to 1. Enrichment was calculated as: (intensity IP/intensity input)/(intensity IgG/intensity input) or intensity IP/input (FIG. 1B).

[8] = system: HSP90 and AR
Protocol: as §2, §3

## C[S+]([O-])CCCCN=C=S (stereo not drawn) [sulforaphane, 1-Isothiocyanato-4-methylsulfinylbutane]
[1]
  enrichment of AR at the PSA ARE: reduced enrichment
[2]; 16 hours
  HDAC6 protein levels at later time points: reduced HDAC6 protein levels
[2]; FLAG-HDAC6 transfected LNCaP cells, sulforaphane-treated, versus empty-vector, sulforaphane-treated cells
  HDAC6 protein expression in HDAC6-over-expressing cells: restored
[2]; LNCaP cells, 16 hours, 20 μM sulforaphane with 20 μM MG132 versus sulforaphane-treated cells
  HDAC6 protein levels with concomitant proteasome inhibitor: restored HDAC6 protein levels
[2]; LNCaP cells, early time point, 4 hours, versus vehicle
  levels of HDAC6 in input whole cell lysate: similar; also recorded: without changing its levels
[2]; empty-vector transfected LNCaP cells, 16-hour treatment with 15 nM sulforaphane versus vehicle
  HDAC6 protein levels: reduced
[3]
  HDAC6 transcript levels: reduce HDAC6 transcript levels
[4]; 20 μM sulforaphane, treated in parallel with ChIP
  levels of AR protein in whole cell lysates: near absent levels
[4]; all sulforaphane dose levels
  AR protein levels: declined
[5]
  AR target gene expression (PSA, TMPRSS2-ERG): dose-dependent reduction
[6]
  AR target gene expression (PSA): dose-dependent reduction
[7]; LNCaP cells, four hours, versus vehicle-treated cells
  enrichment of acetylated lysines on the HSP90 protein: increased enrichment of acetylated lysines on the HSP90 protein
[7]; 4 hours, versus vehicle
  levels of HSP90 in input whole cell lysate: similar
[8]; 4 hour sulforaphane treatment, as opposed to vehicle
  interaction between HSP90 and AR: disrupted
[8]; 4 hour treatment, vehicle versus sulforaphane
  Levels of acetylation of the AR: similar
